Data on three molecules can be found in US11535597B2, “Photoreactive ligands and uses thereof” (The Scripps Research Institute, priority 2017, dated 2022).

The target of one assay is T1, cathepsin B (CTSB) (Homo sapiens, UniProt P07858).
T1 construct: endogenous in cells; host or cells: HEK293T
Briefly: Mapping and competition of FFF probe-modified peptide on cathepsin B (CTSB). Type of assay: binding. The note with it: HEK293T cells co-treated with 9 (200 μM). As for the experimental part:
(§1) Preparation and analysis was adapted from methods previously reported. In brief, for global mapping of fragment probe-modified peptides, separate 10 cm dishes of cells were treated with probes (200-250 μM) in 3.0 mL of DMEM (serum-free) and (if applicable) competitor ligands, proteomes harvested and subjected to click chemistry conditions with either light or heavy isotopically labeled biotin-TEV-azide (10 μL of 5 mM stocks in DMSO, final concentration=100 μM), TCEP, ligand and CuSO4 as detailed above. The samples were allowed to react for 1 h at which point the samples were centrifuged (16,000 g, 5 min, 4° C.). The resulting pellets were sonicated in ice-cold methanol (500 μL) and the resuspended light- and heavy-labeled samples were then combined and centrifuged (16,000 g, 5 min, 4° C.). The pellets were then solubilized in PBS containing 1.2% SDS (1 mL) with sonication and heating (5 min, 95° C.). Samples were transferred to falcon tubes containing DPBS (5 mL), to which a 100 μL of streptavidin-agarose beads slurry was added. […]
(§2) The resulting probe-modified peptides were collected for MS analysis, which was performed as described above with differences in the salt bumps applied in the chromatographic gradients which in this case were 0%, 30%, 60%, 90% and 100% NH4OAc (500 μM). […] The isoTOP ratios for probe labeled peptides were quantified using the in-house software CIMAGE. […]

Another assay concerns the target T2, α-galactosidase (GLA) (Homo sapiens, UniProt P06280).
T2 construct: endogenous in cells; host or cells: human cells (HEK293T; a subset of probes also in K562)
T2 sequence (P06280 32-429): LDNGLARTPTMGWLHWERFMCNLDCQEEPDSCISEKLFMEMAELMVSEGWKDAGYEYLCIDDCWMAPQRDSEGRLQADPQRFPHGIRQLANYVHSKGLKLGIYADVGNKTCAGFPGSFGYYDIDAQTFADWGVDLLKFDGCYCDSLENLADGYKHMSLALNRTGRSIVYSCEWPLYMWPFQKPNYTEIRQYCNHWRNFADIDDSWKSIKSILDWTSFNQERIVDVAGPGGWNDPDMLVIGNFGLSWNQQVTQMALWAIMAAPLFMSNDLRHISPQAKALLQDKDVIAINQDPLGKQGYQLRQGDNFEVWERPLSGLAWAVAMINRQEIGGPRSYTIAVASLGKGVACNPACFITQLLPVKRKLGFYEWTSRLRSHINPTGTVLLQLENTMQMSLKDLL
Briefly: Mapping of FFF probe-modified peptides on α-galactosidase (GLA). In kind it is binding. As for the experimental part: (§3) Preparation and analysis was adapted from methods previously reported. In brief, for global mapping of fragment probe-modified peptides, separate 10 cm dishes of cells were treated with probes (200-250 μM) in 3.0 mL of DMEM (serum-free) and (if applicable) competitor ligands, proteomes harvested and subjected to click chemistry conditions with either light or heavy isotopically labeled biotin-TEV-azide (10 μL of 5 mM stocks in DMSO, final concentration=100 μM), TCEP, ligand and CuSO4 as detailed above. The samples were allowed to react for 1 h at which point the samples were centrifuged (16,000 g, 5 min, 4° C.). The resulting pellets were sonicated in ice-cold methanol (500 μL) and the resuspended light- and heavy-labeled samples were then combined and centrifuged (16,000 g, 5 min, 4° C.). The pellets were then solubilized in PBS containing 1.2% SDS (1 mL) with sonication and heating (5 min, 95° C.). Samples were transferred to falcon tubes containing DPBS (5 mL), to which a 100 μL of streptavidin-agarose beads slurry was added. After incubation, the beads (3 hr) were pelleted by centrifugation (1,400 g, 3 min) and were washed (2×10 mL PBS and 2×10 mL water). The beads were transferred to eppendorf tubes with 1 mL DPBS, centrifuged (1,400 g, 3 min), and resuspended in PBS containing 6 M urea. To this was added 10 mM DTT (25 μL of a 200 mM stock in water) and the beads were incubated at 65° C. for 15 mins. 20 mM iodoacetamide (25 μL of a 400 mM stock in water) was then added and allowed to react at 37° C. for 30 mins with shaking. The bead mixture was diluted with 900 μL PBS, pelleted by centrifugation (1,400 g, 3 min), and resuspended in 200 μL 2M urea (DPBS) containing trypsin and CaCl2 as described above. The beads were separated from the digest by centrifugation (1,000 g, 1 min), washed (2×1 mL PBS and 2×1 mL water) and then transferred to fresh eppendorfs with 1 mL water. The washed beads were washed once further in 150 μL TEV buffer (50 mM Tris, pH 8, 0.5 mM EDTA, 1 mM DTT) by centrifugation (1,400 g, 3 min) and the resuspended in 150 μL TEV buffer. 5 μL TEV protease (80 μM) was added and the reactions were rotated overnight at 29° C. The TEV digest was separated from the beads by centrifugation (1,400 g, 3 min) and the beads were washed once with water (100 μL). The samples were then acidified to a final concentration of 5% (v/v) formic acid and stored at −80° C. prior to analysis.
as §2

In assay [1] the test system is proteins in HEK293T cells. Kind of assay: MS-based mapping of FFF probe-modified peptides (isoTOP, sites of labeling). In kind it is binding, human. The protocol:
as §3
The resulting probe-modified peptides were collected for MS analysis, which was performed as described above with differences in the salt bumps applied in the chromatographic gradients which in this case were 0%, 30%, 60%, 90% and 100% NH4OAc (500 μM). The protein identification searches of the MS data were performed with the following changes applied to identify the peptides modified with the corresponding fragment probe and the cleaved TEV tag. All amino acids were considered as possible residues for modification. To facilitate the computational searches, sets of up to 3 amino acids were searched using ProLuCID and filtered with DTASelect as described above. […] The isoTOP ratios for probe labeled peptides were quantified using the in-house software CIMAGE.
For each protein in the site-of-labeling dataset, the UniProtKB accession number was used to map and collect relevant structures from the RCSB Protein Data Bank (PDB) fulfilling the following criteria: structures determined by X-ray crystallography, wild-type protein, Homo sapiens as the sole source organism. […] Fpocket 2.0 was used to detect potential binding pockets for the resultant structures with all parameters set at recommended default. Pockets with volume less than 500 Å^3 were removed from output prior to further analysis. Residues surrounding fpocket predicted binding pockets for each protein were collected to determine the number of residues overlapping with isoTOP peptides.

The target of a further assay is PTGR2 (Homo sapiens, UniProt Q8N8N7). Kind of assay: Mapping and competition of FFF 8-modified tryptic peptides on PTGR2. Type of assay: binding. The note with it: near the active site. As for the experimental part: as §1, §2
Sequence of PTGR2 (Q8N8N7 whole entry): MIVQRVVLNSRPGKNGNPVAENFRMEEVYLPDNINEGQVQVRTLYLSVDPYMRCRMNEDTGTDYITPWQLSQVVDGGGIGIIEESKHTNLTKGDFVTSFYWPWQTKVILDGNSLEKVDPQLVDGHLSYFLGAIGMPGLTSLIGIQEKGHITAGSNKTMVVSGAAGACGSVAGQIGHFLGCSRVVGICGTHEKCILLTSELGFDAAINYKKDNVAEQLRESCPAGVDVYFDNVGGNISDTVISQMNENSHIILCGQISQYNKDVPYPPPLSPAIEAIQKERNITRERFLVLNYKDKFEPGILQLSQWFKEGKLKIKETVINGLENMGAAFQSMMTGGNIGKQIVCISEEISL

“Also recorded” adds a separate entry of the source.

As to `CC(NC(=O)[C@H](Cc1ccccc1)NC(=O)OCc1ccccc1)C(=O)CF` (stereo partly shown) [Z-FA-FMK, reference compound], the “blockade of probe 9 interaction with CTSB” value on cathepsin B (CTSB) is reported as “blocked”.
For the molecule `C#CCCC1(CCC(=O)NCc2ccc3sccc3c2)N=N1` [probe 4, N-(Benzo[b]thiophen-5-ylmethyl)-3-(3-(but-3-yn-1-yl)-3H-diazirin-3-yl)propanamide], the “Labeled Peptide of GLA Alpha-galactosidase A” value at α-galactosidase (GLA) (Accession P06280, residues of probe-labeled peptide, family Enzymes) was 68-82. Further, the “Labeled Peptide” value at α-galactosidase (GLA) (P06280 GLA Alpha-galactosidase A) is 68-82; on α-galactosidase (GLA) (protein GLA Alpha-galactosidase A, residues of probe-labeled peptide), 68-82; in assay [1] (HNRNPK Heterogeneous nuclear ribonucleoprotein K, residues of probe-modified peptide), 423-433; in assay [1] (IDE Insulin-degrading enzyme, residues of probe-modified peptide) it was 312-324; in assay [1] (NUP93 (Q8N1F7), residues of the probe-labeled peptide), 539-545; in assay [1] (P07195 LDHB L-lactate), 234-244. For the same molecule, the “Labeled Peptide” value in assay [1] (P22830 FECH Fen-ochelatase, mitochondrial) was 254-272; in assay [1] (protein BCAS2 (O75934), residues of probe-labeled peptide), 137-151; in assay [1] (protein CPT2 Carnitine O-palmitoyltransferase 2, mitochondrial (P23786), residues of probe-labeled peptide), 478-495; in assay [1] (protein EMD Emerin (P50402), residues of probe-labeled peptide), 212-221; in assay [1] (protein FECH Ferrochelatase, mitochondrial (P22830), residues of probe-labeled peptide), 254-272; in assay [1] (protein FECH Ferrochelatase, mitochondrial, residues of probe-labeled peptide) it was 254-272. For the same molecule, the “Labeled Peptide” value in assay [1] (protein LDHB L-lactate dehydrogenase B chain, residues of the probe-labeled peptide) was 234-244; in assay [1] (protein P42166 TMPO Lamina-associated polypeptide 2, isoform alpha), 621-637; in assay [1] (protein PGRMC2 Membrane-associated progesterone receptor component (O15173)) it was 136-149; in assay [1] (protein PSMD11 26S proteasome non-ATPase regulatory subunit 11 (O00231)), 298-304; in assay [1] (protein Q14166 TTLL12), 254-287; in assay [1] (residues of probe-labeled peptide on TUBB6 Tubulin beta-6 chain, Accession # Q9BUF5), 217-241. For the same molecule, the “Labeled Peptide of HCCS Cytochrome c-type heme lyase” value in assay [1] (Accession P53701, residues of probe-labeled peptide, family Enzymes) is 200-210.
As for `C#CCCC1(CCC(=O)N2CCC(c3ccccc3)CC2)N=N1` [probe 8, 3-(3-(But-3-yn-1-yl)-3H-diazirin-3-yl)-1-(4-phenylpiperidin-1-yl)propan-1-one], the “probe-modified tryptic peptides in PTGR2” value at PTGR2 is recorded as “aa 55-66; also recorded: aa 261-278”. In assay [1] (Accession P09651, residues of probe-labeled peptide, family Channels, Transporters, Receptors), the “Labeled Peptide of HNRNPA1 Heterogeneous nuclear ribonucleoprotein A1” value is 233-265. In addition, the “Labeled Peptide of HIST1H1C Histone H1.2” value in assay [1] (Accession P16403, residues of probe-labeled peptide, family Transcription factors, Regulators) was 65-75. For the same molecule, the “Labeled Peptide” value is reported as 648-659 in assay [1] (MKI67 (P46013), residues of the probe-labeled peptide); 332-344 in assay [1] (protein BAG6 (P46379), residues of probe-labeled peptide); 441-450 in assay [1] (protein CCT8 T-complex protein 1 subunit theta (P50990), residues of probe-labeled peptide); 287-307 in assay [1] (protein CDC37 Hsp90 co-chaperone Cdc37 (Q16543), residues of probe-labeled peptide); 121-141 in assay [1] (protein DHX9 ATP-dependent RNA helicase A (Q08211), residues of probe-labeled peptide); 1070-1086 in assay [1] (protein Q14683 SMC1A Structureal maintenance of chromosomes protein 1A). The “Labeled Peptide” value in assay [1] (residues of probe-labeled peptide on UBAP2L Ubiquitin-associated protein 2-like, Accession # Q14157) is recorded as 239-257.
